{
  "source": "BindingDB's records for doi:10.1021/jm00110a015",
  "about": "(Virginia Commonwealth University, 1991)",
  "data": [
    {"test": "In vitro binding affinity at PCP binding site of sigma-opioid receptors using (+)-[3H]-MK-801 as radioligand", "units": {"IC50": "nM"}, "values": [
      {"smiles": "CC(Cc1ccc(I)cc1)NCCCc1ccccc1", "note": "(configuration not stated)", "IC50": "> 10000"},
      {"smiles": "COc1ccc(CC(C)NCCCc2ccccc2)cc1", "note": "(configuration not stated)", "IC50": "> 10000"}
    ]},
    {"test": "Inhibition of [3H]DTG binding to Sigma opioid receptor", "units": {"Ki": "nM"}, "values": [
      {"smiles": "c1ccc(CCCNC2Cc3ccccc3C2)cc1", "Ki": 27},
      {"smiles": "CC(Cc1cccc(C(F)(F)F)c1)NCCCc1ccccc1", "note": "(configuration not stated)", "Ki": 3.9},
      {"smiles": "CC(Cc1cccc(Br)c1)NCCCc1ccccc1", "note": "(configuration not stated)", "Ki": 6},
      {"smiles": "CCCc1ccc(CC(C)NCCCc2ccccc2)cc1", "note": "(configuration not stated)", "Ki": 6.2},
      {"smiles": "c1ccc(CCCNC2CCCc3ccccc3C2)cc1", "note": "(configuration not stated)", "Ki": 83}
    ]}
  ]
}
